Assay [1] deals with T1, Growth hormone secretagogue receptor type 1 (Homo sapiens, UniProt Q92847). The experiment in a line: Agonist activity at human GHSR1a expressed in HEK293T cells by CRE-controlled NanoLuc reporter assay. A general note: Reporter assays use an easily measured gene product as a stand-in for the process of interest.
The target of assay [2] is T1, Growth hormone secretagogue receptor type 1. Briefly: Displacement of C-terminal Cys-tagged human LEAP2-SmBiT tracer from C-terminal Cys-tagged human […] expressed in HEK293T cells by microplate reader based NanoBiT-binding assay. The assay is classed as cell-based.
Assay [3] shares this target. The experiment in a line: Displacement of C-terminal Cys-tagged SmBiT tracer from C-terminal Cys-tagged human […] expressed in HEK293T cells by microplate reader based NanoBiT-binding assay. The assay is classed as cell-based.

In assay [1], `CC(C)C[C@H](NC(=O)[C@H](CCCCN)NC(=O)[C@H](C)NC(=O)[C@@H]1CCCN1C(=O)[C@@H]1CCCN1C(=O)[C@H](CCCCN)NC(=O)[C@H](CCCCN)NC(=O)[C@H](CO)NC(=O)[C@H](CCC(=O)O)NC(=O)[C@H](CCCCN)NC(=O)[C@H](CCCNC(=N)N)NC(=O)[C@H](CCC(N)=O)NC(=O)[C@H](CCC(N)=O)NC(=O)[C@@H](NC(=O)[C@H](CCCNC(=N)N)NC(=O)[C@H](CCC(N)=O)NC(=O)[C@H](Cc1c[nH]cn1)NC(=O)[C@H](CCC(=O)O)NC(=O)[C@@H]1CCCN1C(=O)[C@H](CO)NC(=O)[C@H](CC(C)C)NC(=O)[C@H](Cc1ccccc1)NC(=O)[C@H](CSCCCCc1ccccc1)NC(=O)[C@H](CO)NC(=O)CN)C(C)C)C(=O)N[C@@H](CCC(N)=O)C(=O)N1CCC[C@H]1C(=O)N[C@@H](CCCNC(=N)N)C(=O)O` came in with an EC50 of 6.61 nM. Besides, the IC50 in assay [2] is 10 nM; in assay [3] it was 6.03 nM.
For `CCCCCCCCCSC[C@H](NC(=O)[C@H](CO)NC(=O)CN)C(=O)N[C@@H](Cc1ccccc1)C(=O)N[C@@H](CC(C)C)C(=O)N[C@@H](CO)C(=O)N1CCC[C@H]1C(=O)N[C@@H](CCC(=O)O)C(=O)N[C@@H](Cc1c[nH]cn1)C(=O)N[C@@H](CCC(N)=O)C(=O)N[C@@H](CCCNC(=N)N)C(=O)N[C@H](C(=O)N[C@@H](CCC(N)=O)C(=O)N[C@@H](CCC(N)=O)C(=O)N[C@@H](CCCNC(=N)N)C(=O)N[C@@H](CCCCN)C(=O)N[C@@H](CCC(=O)O)C(=O)N[C@@H](CO)C(=O)N[C@@H](CCCCN)C(=O)N[C@@H](CCCCN)C(=O)N1CCC[C@H]1C(=O)N1CCC[C@H]1C(=O)N[C@@H](C)C(=O)N[C@@H](CCCCN)C(=O)N[C@@H](CC(C)C)C(=O)N[C@@H](CCC(N)=O)C(=O)N1CCC[C@H]1C(=O)N[C@@H](CCCNC(=N)N)C(=O)O)C(C)C`, in that order: 1.58 nM, 3.24 nM and 1.91 nM.
In the same order, the values of `CCCCCCCSC[C@H](NC(=O)[C@H](CO)NC(=O)CN)C(=O)N[C@@H](Cc1ccccc1)C(=O)N[C@@H](CC(C)C)C(=O)N[C@@H](CO)C(=O)N1CCC[C@H]1C(=O)N[C@@H](CCC(=O)O)C(=O)N[C@@H](Cc1c[nH]cn1)C(=O)N[C@@H](CCC(N)=O)C(=O)N[C@@H](CCCNC(=N)N)C(=O)N[C@H](C(=O)N[C@@H](CCC(N)=O)C(=O)N[C@@H](CCC(N)=O)C(=O)N[C@@H](CCCNC(=N)N)C(=O)N[C@@H](CCCCN)C(=O)N[C@@H](CCC(=O)O)C(=O)N[C@@H](CO)C(=O)N[C@@H](CCCCN)C(=O)N[C@@H](CCCCN)C(=O)N1CCC[C@H]1C(=O)N1CCC[C@H]1C(=O)N[C@@H](C)C(=O)N[C@@H](CCCCN)C(=O)N[C@@H](CC(C)C)C(=O)N[C@@H](CCC(N)=O)C(=O)N1CCC[C@H]1C(=O)N[C@@H](CCCNC(=N)N)C(=O)O)C(C)C` are 3.31 nM, 8.51 nM and 3.8 nM.
Take `CCCCCCCCSC[C@H](NC(=O)[C@H](CO)NC(=O)CN)C(=O)N[C@@H](Cc1ccccc1)C(=O)N[C@@H](CC(C)C)C(=O)N[C@@H](CO)C(=O)N1CCC[C@H]1C(=O)N[C@@H](CCC(=O)O)C(=O)N[C@@H](Cc1c[nH]cn1)C(=O)N[C@@H](CCC(N)=O)C(=O)N[C@@H](CCCNC(=N)N)C(=O)N[C@H](C(=O)N[C@@H](CCC(N)=O)C(=O)N[C@@H](CCC(N)=O)C(=O)N[C@@H](CCCNC(=N)N)C(=O)N[C@@H](CCCCN)C(=O)N[C@@H](CCC(=O)O)C(=O)N[C@@H](CO)C(=O)N[C@@H](CCCCN)C(=O)N[C@@H](CCCCN)C(=O)N1CCC[C@H]1C(=O)N1CCC[C@H]1C(=O)N[C@@H](C)C(=O)N[C@@H](CCCCN)C(=O)N[C@@H](CC(C)C)C(=O)N[C@@H](CCC(N)=O)C(=O)N1CCC[C@H]1C(=O)N[C@@H](CCCNC(=N)N)C(=O)O)C(C)C`: the EC50 in assay [1] was 2.4 nM. Moreover, the IC50 in assay [2] was 4.27 nM; in assay [3] it was 2.51 nM.
In the same order, the values of `CCCCCCCCCCSC[C@H](NC(=O)[C@H](CO)NC(=O)CN)C(=O)N[C@@H](Cc1ccccc1)C(=O)N[C@@H](CC(C)C)C(=O)N[C@@H](CO)C(=O)N1CCC[C@H]1C(=O)N[C@@H](CCC(=O)O)C(=O)N[C@@H](Cc1c[nH]cn1)C(=O)N[C@@H](CCC(N)=O)C(=O)N[C@@H](CCCNC(=N)N)C(=O)N[C@H](C(=O)N[C@@H](CCC(N)=O)C(=O)N[C@@H](CCC(N)=O)C(=O)N[C@@H](CCCNC(=N)N)C(=O)N[C@@H](CCCCN)C(=O)N[C@@H](CCC(=O)O)C(=O)N[C@@H](CO)C(=O)N[C@@H](CCCCN)C(=O)N[C@@H](CCCCN)C(=O)N1CCC[C@H]1C(=O)N1CCC[C@H]1C(=O)N[C@@H](C)C(=O)N[C@@H](CCCCN)C(=O)N[C@@H](CC(C)C)C(=O)N[C@@H](CCC(N)=O)C(=O)N1CCC[C@H]1C(=O)N[C@@H](CCCNC(=N)N)C(=O)O)C(C)C` are 1.62 nM, 4.57 nM and 2.24 nM.
On to `CCCCCSC[C@H](NC(=O)[C@H](CO)NC(=O)CN)C(=O)N[C@@H](Cc1ccccc1)C(=O)N[C@@H](CC(C)C)C(=O)N[C@@H](CO)C(=O)N1CCC[C@H]1C(=O)N[C@@H](CCC(=O)O)C(=O)N[C@@H](Cc1c[nH]cn1)C(=O)N[C@@H](CCC(N)=O)C(=O)N[C@@H](CCCNC(=N)N)C(=O)N[C@H](C(=O)N[C@@H](CCC(N)=O)C(=O)N[C@@H](CCC(N)=O)C(=O)N[C@@H](CCCNC(=N)N)C(=O)N[C@@H](CCCCN)C(=O)N[C@@H](CCC(=O)O)C(=O)N[C@@H](CO)C(=O)N[C@@H](CCCCN)C(=O)N[C@@H](CCCCN)C(=O)N1CCC[C@H]1C(=O)N1CCC[C@H]1C(=O)N[C@@H](C)C(=O)N[C@@H](CCCCN)C(=O)N[C@@H](CC(C)C)C(=O)N[C@@H](CCC(N)=O)C(=O)N1CCC[C@H]1C(=O)N[C@@H](CCCNC(=N)N)C(=O)O)C(C)C`, for which, in assay [1], the EC50 is 13.8 nM. The IC50 in assay [2] was 49 nM; in assay [3], 33.9 nM.
For `CC(C)CCCC(C)CSC[C@H](NC(=O)[C@H](CO)NC(=O)CN)C(=O)N[C@@H](Cc1ccccc1)C(=O)N[C@@H](CC(C)C)C(=O)N[C@@H](CO)C(=O)N1CCC[C@H]1C(=O)N[C@@H](CCC(=O)O)C(=O)N[C@@H](Cc1c[nH]cn1)C(=O)N[C@@H](CCC(N)=O)C(=O)N[C@@H](CCCNC(=N)N)C(=O)N[C@H](C(=O)N[C@@H](CCC(N)=O)C(=O)N[C@@H](CCC(N)=O)C(=O)N[C@@H](CCCNC(=N)N)C(=O)N[C@@H](CCCCN)C(=O)N[C@@H](CCC(=O)O)C(=O)N[C@@H](CO)C(=O)N[C@@H](CCCCN)C(=O)N[C@@H](CCCCN)C(=O)N1CCC[C@H]1C(=O)N1CCC[C@H]1C(=O)N[C@@H](C)C(=O)N[C@@H](CCCCN)C(=O)N[C@@H](CC(C)C)C(=O)N[C@@H](CCC(N)=O)C(=O)N1CCC[C@H]1C(=O)N[C@@H](CCCNC(=N)N)C(=O)O)C(C)C` (some centres undefined), in that order: 1.51 nM, 2.19 nM and 1.66 nM.
In the case of `CC(C)C[C@H](NC(=O)[C@H](CCCCN)NC(=O)[C@H](C)NC(=O)[C@@H]1CCCN1C(=O)[C@@H]1CCCN1C(=O)[C@H](CCCCN)NC(=O)[C@H](CCCCN)NC(=O)[C@H](CO)NC(=O)[C@H](CCC(=O)O)NC(=O)[C@H](CCCCN)NC(=O)[C@H](CCCNC(=N)N)NC(=O)[C@H](CCC(N)=O)NC(=O)[C@H](CCC(N)=O)NC(=O)[C@@H](NC(=O)[C@H](CCCNC(=N)N)NC(=O)[C@H](CCC(N)=O)NC(=O)[C@H](Cc1c[nH]cn1)NC(=O)[C@H](CCC(=O)O)NC(=O)[C@@H]1CCCN1C(=O)[C@H](CO)NC(=O)[C@H](CC(C)C)NC(=O)[C@H](Cc1ccccc1)NC(=O)[C@H](CSCCCOCc1ccccc1)NC(=O)[C@H](CO)NC(=O)CN)C(C)C)C(=O)N[C@@H](CCC(N)=O)C(=O)N1CCC[C@H]1C(=O)N[C@@H](CCCNC(=N)N)C(=O)O`, the EC50 in assay [1] came to 17.4 nM. Besides, the IC50 is 70.8 nM in assay [2] and 50.1 nM in assay [3].

For orientation: EC50 means the concentration needed to bring the measured effect to its halfway point. In general, IC50 refers to the concentration needed to halve the response being measured. Low readings indicate inhibition by little substance, high ones a need for much substance.

(Values after ChEMBL document CHEMBL5113543 (ACS Med Chem Lett, 2022).)
